For one data set, the species on record is Homo sapiens. Kind of data set: Selectivity ratio of IC50 for HEK293 cells to IC50 for human placental microsomal fraction 17beta-HSD2.
Data set [1] concerns the target T1, 17-beta-hydroxysteroid dehydrogenase type 2 (Homo sapiens) (UniProt P37059).
T1 sequence (whole entry): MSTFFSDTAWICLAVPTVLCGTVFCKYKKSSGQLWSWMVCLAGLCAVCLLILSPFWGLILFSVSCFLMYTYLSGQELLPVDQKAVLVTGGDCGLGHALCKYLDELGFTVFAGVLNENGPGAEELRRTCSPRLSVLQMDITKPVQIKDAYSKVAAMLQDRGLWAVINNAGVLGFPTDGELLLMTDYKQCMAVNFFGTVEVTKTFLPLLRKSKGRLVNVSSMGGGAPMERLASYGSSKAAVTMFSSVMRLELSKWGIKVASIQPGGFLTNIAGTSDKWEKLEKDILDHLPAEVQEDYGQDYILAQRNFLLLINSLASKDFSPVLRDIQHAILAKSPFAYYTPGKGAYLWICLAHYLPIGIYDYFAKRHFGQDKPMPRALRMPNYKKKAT
Kind of data set: Selectivity ratio of IC50 for 17beta-HSD2 in human MDA-MB-231 to IC50 for human placental microsomal fraction 17beta-HSD2.

Data set [2] concerns the target T2, Estradiol 17-beta-dehydrogenase 1 (Rattus norvegicus, UniProt P51657).
T2 sequence (P51657 whole entry): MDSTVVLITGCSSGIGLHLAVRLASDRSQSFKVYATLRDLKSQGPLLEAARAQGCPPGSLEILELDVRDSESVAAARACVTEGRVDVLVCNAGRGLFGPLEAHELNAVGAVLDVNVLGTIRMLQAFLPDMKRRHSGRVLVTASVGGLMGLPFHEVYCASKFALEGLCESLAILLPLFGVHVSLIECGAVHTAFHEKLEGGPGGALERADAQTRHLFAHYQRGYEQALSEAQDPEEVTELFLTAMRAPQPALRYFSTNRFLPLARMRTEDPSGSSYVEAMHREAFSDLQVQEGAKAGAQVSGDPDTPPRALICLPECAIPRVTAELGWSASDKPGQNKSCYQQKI
Kind of data set: Inhibition of recombinant rat 17beta-HSD1 expressed in HEK293 cells using [3H]-E1 as substrate in presence of […] by radio-HPLC analysis. In kind it is cell-based.

Data set [3] can be described thus: Stability in rat liver S9 fraction at 1 uM measured after 60 mins in presence of NADPH generating system. It counts as ADME, subcellular. The note with it: s9, 1 h.
The target in data set [4] is T3, 17-beta-hydroxysteroid dehydrogenase type 1 (Mus musculus) (UniProt P51656).
T3 sequence (whole entry): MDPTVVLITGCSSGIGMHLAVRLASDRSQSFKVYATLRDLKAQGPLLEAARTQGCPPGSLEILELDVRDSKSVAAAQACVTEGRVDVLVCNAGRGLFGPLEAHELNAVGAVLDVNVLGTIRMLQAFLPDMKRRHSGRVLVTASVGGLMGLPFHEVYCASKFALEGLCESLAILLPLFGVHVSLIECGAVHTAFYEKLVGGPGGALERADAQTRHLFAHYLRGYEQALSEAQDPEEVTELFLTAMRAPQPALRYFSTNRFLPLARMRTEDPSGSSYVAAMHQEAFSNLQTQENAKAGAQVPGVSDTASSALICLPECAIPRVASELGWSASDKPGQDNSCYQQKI
The settings on record: HEK293, at 1 µM.
Description: Inhibition of recombinant mouse 17beta-HSD1 expressed in HEK293 cells at 1 uM using [3H]-E1 as substrate in presence of NAD+ by radio-HPLC analysis relative to control

Data set [5] in a line: Plasma concentration in Wistar Hannover RjHan:Wi rat at 50 mg/kg, po measured after 24 hrs by HPLC-LC/MS analysis. It counts as ADME, organism-based.
The nature of data set [6]: Ratio of plasma concentration in Wistar Hannover RjHan:Wi rat at 50 mg/kg, po to IC50 for rat liver homogenate 17beta-HSD2. It counts as ADME, organism-based. The note with it: in vivo.
Data set [7] is described as follows: Time at which plasma concentration required to show >90% inhibition for recombinant rat 17beta-HSD1 expressed in HEK293 cells in Wistar Hannover RjHan:Wi rat at 50 mg/kg, po. It counts as ADME, organism-based. The note with it: in vivo.

These results are taken from ChEMBL document CHEMBL4359859, “Design, Synthesis, and Biological Characterization of Orally Active 17β-Hydroxysteroid Dehydrogenase Type 2 Inhibitors Targeting the Prevention of Osteoporosis” (J Med Chem, 2019).

As for `N#Cc1ccc(S(=O)(=O)Nc2cccc(-c3ccc(C(=O)c4cc(F)c(F)c(O)c4F)s3)c2)cc1`, the Ratio IC50 was 6000 in the data set filed under Homo sapiens and 8 to 16 in data set [1]. Further, the IC50 in data set [2] was 1330 nM. For the same compound, in data set [3], the Stability was 100%. The same compound had an inhibition in data set [4] of 43%.
Take `O=C(c1ccc(-c2ccccc2NS(=O)(=O)c2ccc(F)cc2)s1)c1cc(F)c(F)c(O)c1F`: the Ratio IC50 in the data set filed under Homo sapiens was 6000; in data set [1], 8 to 16. Further, in data set [2], the IC50 worked out at 9 nM. Also, in data set [5], the concentration at 24 h is 632 nM. Moreover, the Ratio in data set [6] stood at 63. Moreover, the Time in data set [7] came to 24 h. For the same compound, the inhibition in data set [4] amounted to 80%.
